Test systems include LOX IMVI melanoma; SNB-19 CNS; NCI-H460 lung; HCT-15 colon; HT29 colon; SF-295 CNS; SK-MEL-2 melanoma; HL-60(TB) leukemia; SK-MEL-5 melanoma; HS 578T breast.
Test in all cases: NCI-60 cell line screen, 48 h

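Grown in 96-well plates, cells were treated for 48 hours with each compound at five concentrations. Insufficient inhibition: endpoint recorded as highest concentration tested. GI50 marks 50% less growth. TGI is the concentration that stops growth completely.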

Consider `OCC(O)C(OC1OC(CO)C(O)C(O)C1O)c1nn(-c2ccccc2)c2nc3cc(Cl)c(Cl)cc3cc12` (centres undefined), for which the TGI with LOX IMVI melanoma, in the assay with SNB-19 CNS, in the assay on NCI-H460 lung, in the assay with HCT-15 colon, in the assay with HT29 colon and in the assay on SF-295 CNS was over 100 µM in each case.

In the case of `CC1CC2C(=O)N(c3ccccc3)C(=O)C2c2c1c1ccccc1n2Cc1ccccc1` (centres undefined), the TGI in the assay on LOX IMVI melanoma, in the assay on NCI-H460 lung, in the assay on SK-MEL-2 melanoma, with HL-60(TB) leukemia, with HCT-15 colon and in the assay on HT29 colon was over 100 µM in each case. Besides, the TGI in the assay on SK-MEL-5 melanoma and with SF-295 CNS was over 100 µM each time.

Turning to `Cn1ccc2c(c1=O)C(=O)c1nccc3c1c-2nc1ccccc13`, the GI50 with LOX IMVI melanoma was 1.4 µM; with SNB-19 CNS, 1.59 µM; in the assay with NCI-H460 lung it was 1.36 µM; in the assay on HL-60(TB) leukemia, 2.21 µM; with HCT-15 colon, 1.56 µM; in the assay with SK-MEL-5 melanoma it was 1.51 µM. Also, the GI50 in the assay on SF-295 CNS is 1.54 µM. The TGI was determined as 2.81 µM in the assay with LOX IMVI melanoma; 3.03 µM in the assay on SNB-19 CNS; 3.09 µM with NCI-H460 lung; 5.03 µM in the assay with HL-60(TB) leukemia; 3.46 µM in the assay on HCT-15 colon; 2.84 µM with SK-MEL-5 melanoma. The TGI in the assay on SF-295 CNS was 3.02 µM.

With `O=C(O)CCSCCCN1C(=O)c2ccccc2C1=O`, the TGI in the assay with SNB-19 CNS, with SK-MEL-2 melanoma, in the assay on HCT-15 colon, in the assay with HT29 colon, in the assay on SK-MEL-5 melanoma and in the assay with SF-295 CNS was over 100 µM throughout.

As for `COc1ccc(-c2cc(-c3ccccc3)nc(N3CCN(CCNc4ccnc5cc(Cl)ccc45)CC3)n2)cc1`, the GI50 in the assay on LOX IMVI melanoma is 1.76 µM; with SNB-19 CNS, 3.19 µM; with NCI-H460 lung, 1.92 µM; with SK-MEL-2 melanoma, 6.78 µM; in the assay with HCT-15 colon, 1.4 µM; in the assay with HS 578T breast it was 11.3 µM. Also, the results for the GI50 in the assay with SK-MEL-5 melanoma and in the assay with SF-295 CNS were 1.62 µM and 16.6 µM, respectively. The TGI with LOX IMVI melanoma was found to be 3.24 µM; in the assay with SNB-19 CNS, 13.2 µM; in the assay on NCI-H460 lung it was 3.78 µM; in the assay on SK-MEL-2 melanoma it was 20.8 µM; in the assay on HCT-15 colon, 3.14 µM; with HS 578T breast, 41.9 µM. Besides, the results for the TGI in the assay on SK-MEL-5 melanoma and in the assay on SF-295 CNS were 3 µM and 33 µM, respectively.

Consider `Cc1cc(C)c2c(c1)Nc1ccccc1P2c1ccccc1` (centres undefined), for which the TGI in the assay on LOX IMVI melanoma is over 100 µM; with SNB-19 CNS, 83.9 µM; in the assay on NCI-H460 lung, 50.8 µM; in the assay on HL-60(TB) leukemia it was 59.6 µM; in the assay on HCT-15 colon, over 100 µM; with HT29 colon, over 100 µM. This molecule showed a TGI in the assay on SF-295 CNS of 56.3 µM.

`NNC(=O)CCC(=O)Nc1cc(Cl)c(Cl)cc1Cl`: the TGI with LOX IMVI melanoma, with SNB-19 CNS, in the assay with NCI-H460 lung, with SK-MEL-2 melanoma, with HL-60(TB) leukemia and in the assay on HCT-15 colon was over 100 µM in each case. Besides, the TGI in the assay with HT29 colon, in the assay with SK-MEL-5 melanoma and with SF-295 CNS was over 100 µM in each case.

`O=C1OC(CC(=O)c2ccc(Cl)cc2Cl)C(Cl)=C1Cl` (centres undefined): the TGI in the assay on LOX IMVI melanoma is 57.9 µM; in the assay on SNB-19 CNS it was over 76.6 µM; in the assay with NCI-H460 lung, over 100 µM; with SK-MEL-2 melanoma, 41.7 µM; in the assay with HL-60(TB) leukemia, over 75.6 µM; in the assay on HCT-15 colon, over 70.6 µM. Further, the results for the TGI in the assay on HT29 colon, with SK-MEL-5 melanoma and in the assay on SF-295 CNS were 36 µM, over 66.3 µM and over 100 µM, respectively.

As to `O=c1c2cc(Br)ccc2nc(-c2ccccc2Cl)n1NCC1(O)OCC(O)C(O)C1O` (centres undefined), the TGI with LOX IMVI melanoma, in the assay on SNB-19 CNS, in the assay on NCI-H460 lung, in the assay on SK-MEL-2 melanoma, in the assay with HL-60(TB) leukemia and with HCT-15 colon was over 100 µM in each case. The TGI in the assay with HT29 colon, in the assay with SK-MEL-5 melanoma and in the assay on SF-295 CNS was over 100 µM throughout.

As for `CS(=O)(=O)OCCn1cnc2nc(NC(=O)c3ccccc3)[nH]c(=O)c21`, the TGI in the assay with LOX IMVI melanoma, with SNB-19 CNS, in the assay on NCI-H460 lung, in the assay on SK-MEL-2 melanoma, in the assay on HL-60(TB) leukemia and with HCT-15 colon was over 100 µM throughout. Besides, the TGI with HT29 colon, in the assay on SK-MEL-5 melanoma and in the assay with SF-295 CNS was over 100 µM in each case.

As to `CC(=O)Nc1ccc(/C=N\N2C(=O)c3ccccc3C2=O)cc1`, the TGI in the assay with LOX IMVI melanoma, in the assay on SNB-19 CNS, with NCI-H460 lung, in the assay with SK-MEL-2 melanoma, in the assay with HL-60(TB) leukemia and in the assay on HCT-15 colon was over 100 µM in each case. Also, the TGI in the assay with HT29 colon, in the assay with SK-MEL-5 melanoma and in the assay on SF-295 CNS was over 100 µM in each case.

On to `CN(C)CCNC(=O)c1ccc(C(=O)NCCN(C)C)c2nc3ccccc3cc12`, for which the TGI in the assay with LOX IMVI melanoma turned out to be 3.15 µM; with SNB-19 CNS, 11.3 µM; in the assay with NCI-H460 lung it was 2.79 µM; in the assay with SK-MEL-2 melanoma, 2.57 µM; in the assay with HL-60(TB) leukemia, 9.5 µM; in the assay on HCT-15 colon it was 16.9 µM. For the same molecule, the TGI with HT29 colon is 6.15 µM; with SK-MEL-5 melanoma it was 4.34 µM; with SF-295 CNS, 16.4 µM.

Consider `Fc1cccc2cc3ccc4cccc5ccc(c12)c3c45`, for which the TGI in the assay on LOX IMVI melanoma, in the assay with SNB-19 CNS, with HL-60(TB) leukemia, in the assay with HT29 colon, in the assay on SK-MEL-5 melanoma and in the assay on SF-295 CNS was over 100 µM each time.

Take `O=c1[nH]nc2ccccc2c1Cl`: the TGI with LOX IMVI melanoma came to 37.5 µM; in the assay on SNB-19 CNS it was 30.5 µM; with NCI-H460 lung, 46.2 µM; in the assay with SK-MEL-2 melanoma, 33.6 µM; in the assay with HCT-15 colon, 25.3 µM; in the assay with HT29 colon, 23.6 µM. The molecule further displayed a TGI with SF-295 CNS of 46.9 µM.

The record behind these values is PubChem BioAssay (NCI).
